Converted amounts (≈) assume the structure as drawn. Structures can show the parent of a compound that is named as a salt.
Experiments:
Staphylococcus aureus [1] = assay: Antibacterial activity against methicillin-resistant Staphylococcus aureus incubated for 6 to 8 hrs by microplate Alamar Blue assay; type: functional; conditions: time 6-8 hrs
Enterococcus faecium [2] = assay: Antibacterial activity against vancomycin-resistant Enterococcus faecium incubated for 6 to 8 hrs by microplate Alamar Blue assay; type: functional; conditions: time 6-8 hrs
Enterococcus faecium [3] = assay: Antibacterial activity against Enterococcus faecium incubated for 6 to 8 hrs by microplate Alamar Blue assay; type: functional; conditions: time 6-8 hrs
Staphylococcus aureus [4] = assay: Antibacterial activity against Staphylococcus aureus ATCC 6538 incubated for 6 to 8 hrs by microplate Alamar Blue assay; type: functional; conditions: time 6-8 hrs
HepG2 = assay: Cytotoxicity against human HepG2 cells assessed as cell growth inhibition incubated for 48 hrs by MTT assay; type: functional, cell-based; conditions: HepG2, 48 h
HeLa = assay: Cytotoxicity against human HeLa cells assessed as cell growth inhibition incubated for 48 hrs by MTT assay; type: functional, cell-based
A549 = assay: Cytotoxicity against human A549 cells assessed as cell growth inhibition incubated for 48 hrs by MTT assay; type: functional, cell-based; conditions: A549, 48 h
[5] = Cytotoxicity against African green monkey Vero cells assessed as cell growth inhibition incubated for 48 hrs by MTT assay; type: toxicity, cell-based; conditions: African green monkey (Chlorocebus sabaeus)
MCF7 = assay: Cytotoxicity against human MCF7 cells assessed as cell growth inhibition incubated for 48 hrs by MTT assay; type: functional, cell-based; conditions: MCF7, 48 h
[6] = Selectivity index, ratio of IC50 for cytotoxicity against African green monkey Vero cells to IC50 for cytotoxicity against human A549 cells; type: toxicity, cell-based; conditions: Vero cells and A549 cells, read-out: Ratio IC50

COc1cc(C)c(-c2cc(OC)cc3cc4c(c(O)c23)C(=O)c2c(O)cc(O)cc2C4(C)C)c(O)c1
MIC (Staphylococcus aureus [1]): 1.3 µg/mL (≈ 2.67 µM)
MIC (Enterococcus faecium [2]): 1.3 µg/mL (≈ 2.67 µM)
MIC (Enterococcus faecium [3]): 1.3 µg/mL (≈ 2.67 µM)
MIC (Staphylococcus aureus [4]): 1.3 µg/mL (≈ 2.67 µM)

COc1cc(C)c(-c2cc(O)c(Cl)c3cc4c(c(O)c23)C(=O)c2c(cc(OC)c(Cl)c2O)C4(C)C)c(O)c1
MIC (Staphylococcus aureus [1]): 2.5 µg/mL (≈ 4.5 µM)
MIC (Enterococcus faecium [2]): 2.5 µg/mL (≈ 4.5 µM)
MIC (Enterococcus faecium [3]): 2.5 µg/mL (≈ 4.5 µM)
MIC (Staphylococcus aureus [4]): 2.5 µg/mL (≈ 4.5 µM)

COc1cc(C)c(-c2cc(O)cc3cc4c(c(O)c23)C(=O)c2c(cc(OC)c(Cl)c2O)C4(C)C)c(O)c1
MIC (Staphylococcus aureus [1]): 2.5 µg/mL (≈ 4.8 µM)
MIC (Enterococcus faecium [2]): 2.5 µg/mL (≈ 4.8 µM)
MIC (Enterococcus faecium [3]): 2.5 µg/mL (≈ 4.8 µM)
MIC (Staphylococcus aureus [4]): 2.5 µg/mL (≈ 4.8 µM)

COc1cc(C)c(-c2cc(OC)cc3cc4c(c(O)c23)C(=O)c2c(O)cc(OC)cc2C4(C)C)c(O)c1
MIC (Staphylococcus aureus [1]): > 10 µg/mL
IC50 (HepG2): 2.7 µM
MIC (Enterococcus faecium [3]): > 10 µg/mL
IC50 (HeLa): 6.7 µM
IC50 (A549): 4.6 µM
MIC (Staphylococcus aureus [4]): > 10 µg/mL
IC50 at 48 h [5]: 7.6 µM
IC50 (MCF7): 6.2 µM

COc1cc(C)c(-c2cc(O)cc3cc4c(c(O)c23)C(=O)c2c(O)cc(OC)cc2C4(C)C)c(O)c1
MIC (Staphylococcus aureus [1]): 2.5 µg/mL (≈ 5.14 µM)
MIC (Enterococcus faecium [2]): 2.5 µg/mL (≈ 5.14 µM)
IC50 (HepG2): 7 µM
MIC (Enterococcus faecium [3]): 1.3 µg/mL (≈ 2.67 µM)
IC50 (HeLa): 6.5 µM
IC50 (A549): 5.3 µM
MIC (Staphylococcus aureus [4]): 2.5 µg/mL (≈ 5.14 µM)
IC50 at 48 h [5]: 6.7 µM
IC50 (MCF7): 16.5 µM

COc1cc(C)c(-c2cc(O)cc3cc4c(c(O)c23)C(=O)c2c(cc(OC)c(Br)c2O)C4(C)C)c(O)c1
MIC (Staphylococcus aureus [1]): 0.6 µg/mL (≈ 1.06 µM)
MIC (Enterococcus faecium [2]): 1.3 µg/mL (≈ 2.3 µM)
IC50 (HepG2): 3.5 µM
MIC (Enterococcus faecium [3]): 1.3 µg/mL (≈ 2.3 µM)
IC50 (HeLa): 4.1 µM
IC50 (A549): 2.5 µM
MIC (Staphylococcus aureus [4]): 0.6 µg/mL (≈ 1.06 µM)
IC50 at 48 h [5]: 2.8 µM
IC50 (MCF7): 3.1 µM

COc1cc(C)c(-c2cc(O)cc3cc4c(c(O)c23)C(=O)c2c(cc(OC)c(Br)c2OC)C4(C)C)c(O)c1
MIC (Staphylococcus aureus [1]): 5 µg/mL (≈ 8.63 µM)
MIC (Enterococcus faecium [2]): 5 µg/mL (≈ 8.63 µM)
IC50 (HepG2): 5.7 µM
MIC (Enterococcus faecium [3]): 5 µg/mL (≈ 8.63 µM)
IC50 (HeLa): 5.1 µM
IC50 (A549): 4.7 µM
MIC (Staphylococcus aureus [4]): 5 µg/mL (≈ 8.63 µM)
IC50 at 48 h [5]: 5.8 µM
IC50 (MCF7): 8.6 µM

COc1cc(-c2c(O)cc(OC)c(Cc3c(OC)cc(C)c(-c4cc(OC)cc5cc6c(c(O)c45)C(=O)c4c(O)cc(O)cc4C6(C)C)c3O)c2C)c2c(O)c3c(cc2c1)C(C)(C)c1cc(O)cc(O)c1C3=O
MIC (Staphylococcus aureus [1]): > 10 µg/mL
IC50 (HepG2): > 50 µM
MIC (Enterococcus faecium [3]): > 10 µg/mL
IC50 (HeLa): > 50 µM
IC50 (A549): > 50 µM
MIC (Staphylococcus aureus [4]): > 10 µg/mL
IC50 at 48 h [5]: > 50 µM
IC50 (MCF7): > 50 µM

COc1cc(C)c(-c2cc(OC)cc3cc4c(c(O)c23)C(=O)c2c(OC)cc(OC)cc2C4(C)C)c(O)c1
MIC (Staphylococcus aureus [1]): > 10 µg/mL
IC50 (HepG2): 5.8 µM
MIC (Enterococcus faecium [3]): > 10 µg/mL
IC50 (HeLa): 7.7 µM
IC50 (A549): 6 µM
MIC (Staphylococcus aureus [4]): > 10 µg/mL
IC50 at 48 h [5]: 9 µM
IC50 (MCF7): 9.2 µM

COC1=CC(=O)C(c2cc(OC)cc3cc4c(c(O)c23)C(=O)c2c(O)cc(O)cc2C4(C)C)=C(C)C1=O
MIC (Staphylococcus aureus [1]): > 10 µg/mL
IC50 (HepG2): 12.4 µM
MIC (Enterococcus faecium [3]): > 10 µg/mL
IC50 (HeLa): 14.6 µM
IC50 (A549): 8.9 µM
MIC (Staphylococcus aureus [4]): > 10 µg/mL
IC50 at 48 h [5]: 15.1 µM
IC50 (MCF7): 9.6 µM

COc1cc(-c2c(O)cc(OC)c(Cc3c(OC)cc(O)c(-c4cc(OC)cc5cc6c(c(O)c45)C(=O)c4c(O)cc(O)cc4C6(C)C)c3C)c2C)c2c(O)c3c(cc2c1)C(C)(C)c1cc(O)cc(O)c1C3=O
MIC (Staphylococcus aureus [1]): 2.5 µg/mL (≈ 2.54 µM)
IC50 (HepG2): 16.7 µM
MIC (Enterococcus faecium [3]): > 10 µg/mL
IC50 (HeLa): 15.8 µM
IC50 (A549): 5.7 µM
selectivity ratio [6]: 3
MIC (Staphylococcus aureus [4]): 2.5 µg/mL (≈ 2.54 µM)
IC50 at 48 h [5]: 17.6 µM
IC50 (MCF7): 17.2 µM

COc1cc(C)c(-c2cc(OC)cc3cc4c(c(O)c23)C(=O)c2c(cc(O)c(Br)c2O)C4(C)C)c(O)c1
MIC (Staphylococcus aureus [1]): 1.3 µg/mL (≈ 2.3 µM)
MIC (Enterococcus faecium [2]): 2.5 µg/mL (≈ 4.42 µM)
IC50 (HepG2): 5.2 µM
MIC (Enterococcus faecium [3]): 1.3 µg/mL (≈ 2.3 µM)
IC50 (HeLa): 3.6 µM
IC50 (A549): 3.3 µM
MIC (Staphylococcus aureus [4]): 1.3 µg/mL (≈ 2.3 µM)
IC50 at 48 h [5]: 9 µM
IC50 (MCF7): 8.9 µM

COc1cc(C)c(-c2cc(O)c(Br)c3cc4c(c(O)c23)C(=O)c2c(cc(OC)c(Br)c2O)C4(C)C)c(O)c1
MIC (Staphylococcus aureus [1]): 1.3 µg/mL (≈ 2.02 µM)
MIC (Enterococcus faecium [2]): 2.5 µg/mL (≈ 3.88 µM)
IC50 (HepG2): 5.9 µM
MIC (Enterococcus faecium [3]): 2.5 µg/mL (≈ 3.88 µM)
IC50 (HeLa): 1.7 µM
IC50 (A549): 2.8 µM
MIC (Staphylococcus aureus [4]): 1.3 µg/mL (≈ 2.02 µM)
IC50 at 48 h [5]: 15.1 µM
IC50 (MCF7): 4.6 µM

COc1cc(C)c(C(=O)c2c(CC(C)=O)cc3c(c2O)C(=O)c2c(cc(OC)c(Br)c2OC)C3(C)C)c(OC)c1
MIC (Staphylococcus aureus [1]): > 10 µg/mL
IC50 (HepG2): 13.6 µM
MIC (Enterococcus faecium [3]): > 10 µg/mL
IC50 (HeLa): 12.6 µM
IC50 (A549): 10.2 µM
MIC (Staphylococcus aureus [4]): > 10 µg/mL
IC50 at 48 h [5]: > 50 µM
IC50 (MCF7): 12.3 µM

COc1cc(-c2c(O)cc(OC)c(OC)c2C)c2c(O)c3c(cc2c1)C(C)(C)c1cc(O)cc(O)c1C3=O
MIC (Staphylococcus aureus [1]): 5 µg/mL (≈ 9.68 µM)
MIC (Enterococcus faecium [2]): 5 µg/mL (≈ 9.68 µM)
IC50 (HepG2): 4.8 µM
MIC (Enterococcus faecium [3]): 5 µg/mL (≈ 9.68 µM)
IC50 (HeLa): 11.1 µM
IC50 (A549): 6.3 µM
MIC (Staphylococcus aureus [4]): 5 µg/mL (≈ 9.68 µM)
IC50 at 48 h [5]: 4.5 µM
IC50 (MCF7): 12.3 µM

COc1cc(C)c(-c2cc(OC)cc3cc4c(c(O)c23)C(=O)c2c(cc(OC)c(Br)c2O)C4(C)C)c(O)c1
MIC (Staphylococcus aureus [1]): > 10 µg/mL
IC50 (HepG2): 4.7 µM
MIC (Enterococcus faecium [3]): > 10 µg/mL
IC50 (HeLa): 1.7 µM
IC50 (A549): 3.3 µM
MIC (Staphylococcus aureus [4]): > 10 µg/mL
IC50 at 48 h [5]: 7.3 µM
IC50 (MCF7): 7.9 µM

COc1cc(C)c(-c2cc(OC)c(Br)c3cc4c(c(O)c23)C(=O)c2c(O)cc(O)cc2C4(C)C)c(O)c1
MIC (Staphylococcus aureus [1]): 1.3 µg/mL (≈ 2.3 µM)
MIC (Enterococcus faecium [2]): 1.3 µg/mL (≈ 2.3 µM)
IC50 (HepG2): 4.5 µM
MIC (Enterococcus faecium [3]): 1.3 µg/mL (≈ 2.3 µM)
IC50 (HeLa): 5.8 µM
IC50 (A549): 3.1 µM
MIC (Staphylococcus aureus [4]): 1.3 µg/mL (≈ 2.3 µM)
IC50 at 48 h [5]: 5.7 µM
IC50 (MCF7): 5.3 µM

COc1cccc2c1C(=O)c1c(O)c3c(c(O)c1C2=O)C[C@@](O)(C(=O)CO)C[C@@H]3O[C@H]1C[C@H](N)[C@H](O)[C@H](C)O1 [DOXORUBICIN HYDROCHLORIDE]
IC50 (HepG2): 0.8 µM
IC50 (A549): 0.7 µM

NC[C@H]1O[C@H](O[C@H]2[C@H](O)[C@@H](O[C@H]3O[C@H](CO)[C@@H](O)[C@H](N)[C@H]3O)[C@H](N)C[C@@H]2N)[C@H](O)[C@@H](O)[C@@H]1O [KANAMYCIN]
MIC (Staphylococcus aureus [4]): 1.3 µg/mL (≈ 2.68 µM)

CN[C@H](CC(C)C)C(=O)N[C@H]1C(=O)N[C@@H](CC(N)=O)C(=O)N[C@H]2C(=O)N[C@H]3C(=O)N[C@H](C(=O)N[C@H](C(=O)O)c4cc(O)cc(O)c4-c4cc3ccc4O)[C@H](O)c3ccc(c(Cl)c3)Oc3cc2cc(c3O[C@@H]2O[C@H](CO)[C@@H](O)[C@H](O)[C@H]2O[C@H]2C[C@](C)(N)[C@H](O)[C@H](C)O2)Oc2ccc(cc2Cl)[C@H]1O [VANCOMYCIN]
MIC (Staphylococcus aureus [1]): 0.6 µg/mL (≈ 0.414 µM)
MIC (Enterococcus faecium [2]): > 40 µg/mL
MIC (Enterococcus faecium [3]): 1.3 µg/mL (≈ 0.897 µM)
